These results are taken from ChEMBL document CHEMBL1201862, “PubChem BioAssay data set” (2004).

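Method: 48-hour compound exposure of cells in 96-well plates, five concentrations, linear interpolation of endpoints. At the GI50, growth is halved.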 The source made the active and inactive calls. No stated cut-off is given here; in the data, active = GI50 up to about 1.1 µM and inactive = higher. Bounds are passed on as bounds.

Test systems include U-251; NCI-H460; PC-3; HT-29; T47D; A498; MOLT-4; HCT-15; HOP-62; TK-10; UACC-62; Malme-3M; OVCAR-8; SNB-19; SN12C; A549; SF-539; IGROV-1; NCI-H226; MDA-N.
Common to all, as to test: NCI-60 cell line screen, 48 h

As to `O=C(/C=C/c1ccc(Cl)cc1)c1ccccc(=O)c1O`, the GI50 in the experiment on U-251 is 2.26 µM (inactive); in the experiment with NCI-H460, 0.461 µM (active); in the experiment with PC-3, 4.08 µM (inactive); with HT-29 it was 2.58 µM (inactive); in the experiment with T47D, 4.36 µM (inactive); in the experiment on A498 it was 2.84 µM (inactive). For the same compound, the GI50 was 0.798 µM (active) in the experiment with MOLT-4; 0.341 µM with HCT-15; 2.65 µM (inactive) in the experiment on HOP-62; 4.55 µM (inactive) with TK-10; 1.14 µM (inactive) in the experiment on UACC-62; 1.33 µM (inactive) in the experiment with Malme-3M. Also, the GI50 with OVCAR-8 was 0.698 µM (active); with SNB-19, 2.72 µM (inactive); in the experiment on SN12C, 0.643 µM (active); in the experiment on A549 it was 1.41 µM (inactive); in the experiment with SF-539 it was 2.32 µM (inactive); in the experiment with IGROV-1, 1.82 µM (inactive). Moreover, the GI50 in the experiment with NCI-H226 is 1.41 µM (inactive).

For `O=C1OC(c2ccc(Cl)cc2)=N/C1=C\c1ccccc1`, the GI50 in the experiment on U-251, in the experiment on NCI-H460, with PC-3, with HT-29, in the experiment with T47D and in the experiment with MDA-N was > 100 µM (inactive) each time. Further, the GI50 in the experiment with HCT-15 was more than 100 µM; in the experiment with HOP-62, > 100 µM (inactive); with TK-10, > 100 µM (inactive); in the experiment on UACC-62, > 100 µM (inactive); in the experiment with OVCAR-8 it was > 100 µM (inactive); in the experiment with SNB-19, > 100 µM (inactive). Also, the GI50 in the experiment on SN12C, in the experiment with A549, with SF-539, in the experiment with IGROV-1 and in the experiment with NCI-H226 was > 100 µM (inactive) in each case.

Consider `O=C(Nc1ccccc1)C(=O)C(C(=O)c1ccccc1)C(c1ccccc1)c1ccccc1` (configuration not stated), for which the GI50 is > 10 µM (inactive) in the experiment with PC-3; > 10 µM (inactive) with HT-29; > 10 µM (inactive) in the experiment with T47D; > 10 µM (inactive) in the experiment with MDA-N; > 10 µM (inactive) with MOLT-4; more than 10 µM with HCT-15. In addition, the GI50 in the experiment with HOP-62, with TK-10, in the experiment with UACC-62, with Malme-3M, in the experiment with OVCAR-8 and with SN12C was > 10 µM (inactive) in each case. The GI50 with A549 and with IGROV-1 was > 10 µM (inactive) each time.

`CC(=O)O[C@H]1/C(=C/c2ccncc2)C[C@H]2[C@@H]3CC=C4C[C@@H](N5CCCC5)CC[C@]4(C)[C@H]3CC[C@]12C`: the GI50 is 11.5 µM (inactive) in the experiment on U-251; 10.8 µM (inactive) in the experiment with NCI-H460; 11.7 µM (inactive) in the experiment on PC-3; 1.49 µM (inactive) in the experiment with HT-29; 13.4 µM (inactive) with T47D; 16.7 µM (inactive) with A498. The GI50 with MOLT-4 is 11.5 µM (inactive); in the experiment with HCT-15 it was 10.1 µM; with HOP-62, 14.2 µM (inactive); in the experiment with TK-10, 14.6 µM (inactive); with UACC-62, 14.2 µM (inactive); with Malme-3M, 13 µM (inactive). Besides, the GI50 was 14 µM (inactive) in the experiment with OVCAR-8; 16.9 µM (inactive) with SNB-19; 17 µM (inactive) with SN12C; 11.8 µM (inactive) in the experiment on A549; 18.6 µM (inactive) with SF-539; 12.6 µM (inactive) in the experiment on IGROV-1. In the experiment on NCI-H226, the GI50 was 19.3 µM (inactive).

In the case of `Oc1ccc2ccccc2c1/N=N/c1ccc(Br)cc1`, the GI50 with U-251, in the experiment on PC-3, in the experiment with HT-29, with T47D, with MDA-N and with MOLT-4 was > 100 µM (inactive) in each case. Moreover, the GI50 was more than 100 µM with HCT-15; 21 µM (inactive) in the experiment with HOP-62; 59.6 µM (inactive) in the experiment with TK-10; > 100 µM (inactive) in the experiment with UACC-62; 66.1 µM (inactive) in the experiment with Malme-3M; > 100 µM (inactive) in the experiment on OVCAR-8. Further, the GI50 was > 100 µM (inactive) with SNB-19; > 100 µM (inactive) with SN12C; > 100 µM (inactive) in the experiment with A549; 36.1 µM (inactive) in the experiment with IGROV-1; 66.7 µM (inactive) in the experiment with NCI-H226.

Consider `Cc1cc2nnn(C3CCCCO3)c2cc1C` (configuration not stated), for which the GI50 with U-251 was > 100 µM (inactive); in the experiment on NCI-H460, > 100 µM (inactive); in the experiment on PC-3 it was > 100 µM (inactive); in the experiment on HT-29 it was > 100 µM (inactive); in the experiment with T47D, 95.5 µM (inactive); with MDA-N, > 100 µM (inactive). Moreover, the GI50 with MOLT-4 was > 100 µM (inactive); in the experiment on HCT-15, more than 100 µM; in the experiment with HOP-62, > 100 µM (inactive); in the experiment on TK-10, > 100 µM (inactive); in the experiment with UACC-62, > 100 µM (inactive); in the experiment on Malme-3M it was > 100 µM (inactive). The GI50 with OVCAR-8, in the experiment on SNB-19, with SN12C, in the experiment with A549, with SF-539 and in the experiment on IGROV-1 was > 100 µM (inactive) each time. In the experiment with NCI-H226, the GI50 is > 100 µM (inactive).

As for `CCOC(=O)NC(=S)NC(C)c1ccccc1` (configuration not stated), the GI50 in the experiment with U-251 was > 100 µM (inactive); with PC-3 it was > 100 µM (inactive); in the experiment with HT-29 it was > 100 µM (inactive); with T47D, 98.6 µM (inactive); with MDA-N, > 100 µM (inactive); in the experiment on MOLT-4, 26.4 µM (inactive). Besides, the GI50 in the experiment on HCT-15 is more than 100 µM; with HOP-62 it was > 100 µM (inactive); in the experiment with TK-10, > 100 µM (inactive); in the experiment with UACC-62 it was > 100 µM (inactive); in the experiment on Malme-3M, > 100 µM (inactive); in the experiment with OVCAR-8, > 100 µM (inactive). In addition, the GI50 with SNB-19, in the experiment with A549, in the experiment on IGROV-1 and in the experiment with NCI-H226 was > 100 µM (inactive) each time.

Turning to `CC(OC(C)(C)C)[C@H](NC(=O)OC(C)(C)C)C(=O)O` (some centres not stated), the GI50 in the experiment on U-251, with NCI-H460, in the experiment with PC-3, with HT-29, in the experiment on T47D and in the experiment with A498 was > 100 µM (inactive) throughout. For the same compound, the GI50 was > 100 µM (inactive) in the experiment on MOLT-4; more than 100 µM in the experiment with HCT-15; > 100 µM (inactive) in the experiment with HOP-62; > 100 µM (inactive) in the experiment on TK-10; > 100 µM (inactive) with UACC-62; > 100 µM (inactive) with Malme-3M. Besides, the GI50 with OVCAR-8, with SNB-19, with SN12C, with A549, in the experiment on SF-539 and in the experiment with IGROV-1 was > 100 µM (inactive) in each case. Moreover, the GI50 with NCI-H226 is > 100 µM (inactive).

On to `CCN(CC)CCCNc1ccc([N+](=O)[O-])c2nc3ccc(OC)cc3c(N)c12`, for which the GI50 with U-251 was > 10 µM (inactive); with NCI-H460, 1.82 µM (inactive); in the experiment with PC-3 it was 1.75 µM (inactive); with HT-29, 1.77 µM (inactive); in the experiment with T47D it was > 10 µM (inactive); with A498, > 10 µM (inactive). The GI50 with MOLT-4 was 1.33 µM (inactive); with HCT-15 it was 1.72 µM; with HOP-62, > 10 µM (inactive); in the experiment with TK-10, > 10 µM (inactive); in the experiment with UACC-62, > 10 µM (inactive); in the experiment on Malme-3M it was > 10 µM (inactive). Besides, the GI50 with OVCAR-8 was 1.95 µM (inactive); in the experiment on SNB-19, > 4.34 µM (inactive); in the experiment on SN12C, 2.07 µM (inactive); in the experiment with A549, 1.86 µM (inactive); with SF-539, 1.85 µM (inactive); in the experiment on IGROV-1 it was 2.58 µM (inactive). In addition, the GI50 in the experiment on NCI-H226 is > 10 µM (inactive).

Regarding `COc1cc2c(/C=C3/C(=O)Nc4cc(C)c(O)cc43)c(Cl)[nH]c2cc1C`, the GI50 in the experiment with U-251 was 3.9 µM (inactive); in the experiment with NCI-H460 it was 2.51 µM (inactive); in the experiment with PC-3, 3.18 µM (inactive); with HT-29, 2.33 µM (inactive); with T47D, 3.16 µM (inactive); in the experiment on A498 it was 13.9 µM (inactive). The GI50 in the experiment on MOLT-4 is 0.148 µM (active); in the experiment with HCT-15, 3.33 µM; in the experiment with HOP-62 it was 2 µM (inactive); with TK-10, 1.9 µM (inactive); in the experiment with UACC-62, 1.96 µM (inactive); in the experiment with Malme-3M, 0.407 µM (active). For the same compound, the GI50 with OVCAR-8 was 3.69 µM (inactive); with SNB-19, 2.82 µM (inactive); in the experiment on SN12C, 2.4 µM (inactive); with A549, 4.01 µM (inactive); in the experiment on SF-539 it was 2.2 µM (inactive); with IGROV-1, 4.06 µM (inactive). Besides, the GI50 with NCI-H226 is 5.69 µM (inactive).

On to `COC(=O)c1cc(C(=CCC[C@H]2CC[C@@]3(C)C(CCC4C3CC[C@@]3(C)C4CC[C@@H]3C(C)CCCC(C)C)C2)c2cc(Cl)c(OC(=O)c3ccccc3)c(C(=O)OC)c2)cc(Cl)c1OC(=O)c1ccccc1` (some centres not stated), for which the GI50 in the experiment on U-251, with NCI-H460, in the experiment with PC-3, in the experiment on HT-29, in the experiment with T47D and with MDA-N was > 10 µM (inactive) each time. Moreover, the GI50 in the experiment with MOLT-4 is > 10 µM (inactive); with HCT-15, more than 10 µM; with HOP-62, > 10 µM (inactive); in the experiment with TK-10, > 10 µM (inactive); with UACC-62, > 10 µM (inactive); in the experiment on Malme-3M it was > 10 µM (inactive). Further, the GI50 in the experiment on OVCAR-8, with SNB-19, in the experiment on SN12C, in the experiment with A549, in the experiment on SF-539 and with IGROV-1 was > 10 µM (inactive) in each case. The GI50 in the experiment on NCI-H226 is > 10 µM (inactive).
